Test results reported in publication PMC10120462, “Styrylquinazoline derivatives as ABL inhibitors selective for different DFG orientations” (Journal of Enzyme Inhibition and Medicinal Chemistry, 2023).

Tests used:
BTK = biological target: T1, BTK (Homo sapiens, UniProt Q06187); assay: Tyrosine kinase assay (Kinase Selectivity System TK-2, ADP-Glo); type: biochemical; conditions: 1 h incubation, mean ± SD of four experiments
T1 construct: purchased Promega

BRK = biological target: T2, BRK (Homo sapiens, UniProt Q13882); assay: as above; type: biochemical; conditions: 1 h incubation, mean ± SD of four experiments
T2 construct: purchased Promega

CSK = biological target: T3, CSK (Homo sapiens, UniProt P41240); assay: as above; type: biochemical; conditions: 1 h incubation, mean ± SD of four experiments
T3 construct: purchased Promega

Fyn A = biological target: T4, Fyn A (Homo sapiens, UniProt P06241); assay: as above; type: biochemical; conditions: 1 h incubation, mean ± SD of four experiments
T4 construct: purchased Promega
Excerpt: All newly synthesised derivatives were screened for their inhibitory potential towards eight non-receptor tyrosine kinases, such as ABL, BTK, BRK and Src family kinases, such as CSK, Lyn, Lck, Fyn and Src. […] To facilitate the analysis of the structure and enzymatic activity, all tested compounds were divided into four subgroups based on the main structural scaffolds (the general structure of each group is shown in the second column of Table 1). Series A, B, and C were subdivided according to the S^4-aryl substituent, while D represents the different styryl groups at the C^2-quinazoline position.
Herein, we used a kinase assay that contained fully expressed kinases with their regulatory domains, which are responsible for autoinhibition. The proteins are present in their unphosphorylated form and the procedure required supplementation with ATP. Importantly, autophosphorylation of ABL is dependent on […] concentration of the protein. Thus, our experimental conditions reflect the cellular process to be simulated. The luminescence signal detected after one hour of incubation with a peptide substrate was a measure of inhibition. Under these conditions, the question of whether the inhibitors tested bind to the ortho or allosteric site of the protein could be answered. […] To test this hypothesis, further molecular docking experiments were performed to more precisely determine the binding of the tested compounds to the ABL kinase.
To determine the inhibition of non-receptor tyrosine kinases, assays were performed using the kinase selectivity system TK-2 and the ADP-Glo Kinase Assay (both from Promega). The protocol was previously developed by our group and described in reports[12]^,[36]. Experiments were performed at least four times. Data are expressed as percentage of tyrosine kinase inhibitory activity after treatment with the derivatives tested.

Lyn B = biological target: T5, Lyn B (Homo sapiens, UniProt P07948); assay: as above; type: biochemical; conditions: 1 h incubation, mean ± SD of four experiments
T5 construct: purchased Promega

K562 cells [1] = assay: Cell cycle assay (Muse Cell-Cycle Kit, flow cytometry); type: cell-based, human; conditions: 16 h
Experimental: The interesting inhibitory potential of ABL kinase and the high antiproliferative activity of several styrylquinazoline derivatives prompted us to further investigate their mechanism of action.
K562 cells were seeded in 3 cm Petri dishes (Nunc) at a density of 150,000 cells per well and incubated under standard conditions at 37 °C for 24 h. […] After 16 h of treatment, assays were performed using a Muse Cell-Cycle Kit (Millipore) according to the supplier’s instructions. Briefly, leukaemia cells were collected, washed in cold PBS, and centrifuged. Cells were then fixed in ice-cold 70% ethanol and stored at −20 °C overnight. The next day, leukaemia cells were washed with cold PBS, centrifuged and resuspended in Muse™ Cell Cycle Reagent. Samples were incubated for 30 min at room temperature in the dark. After staining, the levels of cellular subpopulations in each cell cycle phase were determined using a Muse Cell Analyser (Millipore). Experiments were performed at least four times.

K562 cells [2] = assay: Analysis of mRNA expression (RT-qPCR); type: cell-based, human; conditions: 16 h; IS1 50 µM, IS8 12 µM, IS10 20 µM, imatinib 2 µM, GNF-2 2 µM
Excerpt: In the next step, the inhibitory potential of the tested compounds at the gene and protein levels was verified in K562 cells. For this purpose, we examined changes in the expression of the ABL signalling pathway and ABL downstream targets after exposure to IS1, IS8 and IS10. […] The enhanced transcription of the ABL gene might be related to the low protein level that was reached after exposure to the tested drugs. Thus, the cellular machinery could induce increased protein synthesis to counteract the effects of inhibition. […] The second gene studied, SRC, is involved in signal transduction from growth factors and receptors. Similar to ABL, the Src protein has oncogenic activity and is overexpressed in cancer cells. It is also important to emphasise that both kinases form a specific direct signalling network, as […].
Reverse transcription was carried out with 1 μg total RNA using a ProtoScript M-MuLV First Strand cDNA Synthesis Kit (New England BioLabs). The RT-qPCR was performed using a CTX96 Real-Time PCR Detection System (Biorad) in a 10 μL reaction volume containing Luna Universal qPCR Master Mix (New England BioLabs), specific primer pair mix and cDNA. The PCR reaction was performed as follows: initial denaturation at 95 °C for 60 s; followed by 40 cycles of denaturation at 95 °C, 15 s; annealing (primer-specific temperature for 30 s) and extension at 72 °C for 30 s. Melting curve analysis was used to determine the specific PCR products. The results were analysed based on comparison of the expression of the target genes with the reference gene – HPRT1 using the 2^−^ΔΔ^CT method. Experiments were performed at least four times.

K562 cells [3] = assay: Immunoblotting; type: cell-based, human; conditions: 16 h
Excerpt: Changes in the expression of the BCR-ABL and ABL proteins and their downstream targets, such as STAT5, Src, Akt and Fyn after treatment with the tested compounds were also examined. As shown in Figure 7(B), no significant changes in the phosphorylation of BCR-ABL were observed after treatment with the tested styrylquinazolines. […] For reference inhibitors, there were greater changes in the expression of this protein. There were also interesting changes in the downstream targets of ABL, STAT5 and Src. […] Unfortunately, contrary to our assumptions and earlier results, IS1 was ineffective in inhibiting ABL, STAT5, and Src phosphorylation at the concentrations used. However, this derivative caused downregulation of Fyn expression, which could confirm its high inhibitory potential from in vitro kinase assays. […] Thus, these compounds were capable of blocking the pro-survival pathway facilitated by Akt kinase.
Prior to the experiment, K562 cells were seeded at a density of 500,000 cells per well in 3 cm Petri dishes (Nunc). […] After 16 h of exposure, cells were collected, centrifuged, and lysed on ice in complete RIPA buffer containing Halt Protease Inhibitor Cocktail, Halt Phosphatase Inhibitor Cocktail and 0.5 M EDTA (all from Thermo Scientific). Protein quantification was measured using a BCA Protein Assay Kit (Thermo Scientific) according to the manufacturer’s protocol. Equal amounts of the proteins were electrophoresed on SDS-page gels and transferred to nitrocellulose membranes. After blocking in 5% non-fat milk prepared in TTBS (Tris buffered saline with Tween 20), membranes were incubated overnight at 4 °C with specific primary antibodies (all from Cell Signalling) at a dilution of 1:1000 for c-ABL, phospho-c-ABL, Stat5, phospho-Stat5, cyclin E1, p27, PARP, AIF, BID, Src, Fyn, Akt, phospho-Akt, and at a dilution of 1:2000 for reference proteins (vinculin, β-actin and GAPDH). The next day, membranes were washed and incubated with horseradish peroxidase (HRP)-conjugated secondary antibodies for 1 h at room temperature. Chemiluminescence signals were recorded after staining with SuperSignal™ West Pico Chemiluminescent Substrate (Thermo Scientific) using a ChemiDoc™ XRS + System (BioRad). Experiments were performed four to five times. Densitometric analysis was performed using ImageJ software (Wayne Rasband, National Institutes of Health, USA).

ABL = biological target: T6, ABL (Homo sapiens, UniProt P00519); assay: Tyrosine kinase assay (Kinase Selectivity System TK-2, ADP-Glo); type: biochemical; conditions: 1 h incubation, mean ± SD of four experiments
T6 construct: purchased Promega

Lck = biological target: T7, Lck (Homo sapiens, UniProt P06239); assay: as above; type: biochemical; conditions: 1 h incubation, mean ± SD of four experiments
T7 construct: purchased Promega

Src = biological target: T8, Src (Homo sapiens, UniProt P12931); assay: as above; type: biochemical; conditions: 1 h incubation, mean ± SD of four experiments
T8 construct: purchased Promega

A549 = assay: Cytotoxicity studies (MTS), antiproliferative activity; type: cell-based, human
Excerpt: (§1) In contrast, the other cell lines studied represent common cancers found in the human population. Nevertheless, these cell lines are characterised by a different landscape of kinase expression, as reported in[36]. In chronic leukaemia cells, an aberration of the Philadelphia chromosome is common in which a fragment of chromosome 9 is displaced to chromosome 22, leading to the formation of the oncogenic protein BCR-ABL. The altered structure of the protein leads to abnormal activity that promotes excessive growth and differentiation of cells even in the absence of growth factors, as well as inhibition of apoptosis and formation of metastases. Moreover, the status of the TP53 gene in leukaemia is not insignificant. Mutations of the TP53 gene occur in more than 50% of all cancers, leading to increased metastasis and an overall poor prognosis[38]^,[39]. The p53 protein encoded by this gene plays a pivotal role in controlling cell division or cell fate when damage is detected. […] Therefore, interaction between the signalling network of the BCR-ABL pathway and p53 often results in an impairment of p53 function and survival[43]^,[44]. […] Selectivity studies were performed on normal human fibroblast – NHDF cell line.
(§2) M. Rusin from the Maria Sklodowska-Curie Memorial Cancer Centre and Institute of Oncology in Gliwice, Poland. […] G. Kramer-Marek from the Institute of Cancer Research in London, United Kingdom. The human suspension chronic myeloids leukaemia cell line K562 and the pancreatic ductal adenocarcinoma cell line PANC-1 were purchased from Merck. The normal human dermal fibroblasts cell line NHDF were obtained from PromoCell. All adherent cancer cell lines were cultured in Dulbecco’s Modified Eagle’s medium (DMEM) supplemented with 10% heat-inactivated foetal bovine serum – FBS (all from Merck). […] Each complete medium contained a mixture of two antibiotics - penicillin and streptomycin (1% v/v; Gibco). Cell lines were cultured at 37 °C with 5% CO2 humidified atmosphere.
(§3) The assay was carried out after 72 h of incubation with different concentrations of the tested compounds. Then DMEM without phenol red was added to each well with CellTiter 96®AQueous One Solution-MTS (Promega) solution and incubated for 1 h or 3 h (PANC-1) at 37 °C. The optical densities of the samples were measured at 490 nm using a multi-plate reader (Synergy 4, BioTek). […] Each compound was tested in triplicate in a single experiment and each experiment was performed three or four times.

HCT 116 p53+/+ = assay: as above; type: cell-based, human
Excerpt: as §1, §2, §3

HCT 116 p53−/− = assay: as above; type: cell-based, human; conditions: Homo sapiens, HCT-116; 72 h, MTS
Excerpt: as §1, §2, §3

K562 = assay: as above; type: cell-based, human
Excerpt: as §1, §2, §3

MCF-7 = assay: as above; type: cell-based, human
Excerpt: as §1, §2, §3

PANC-1 = assay: as above; type: cell-based, human; conditions: Homo sapiens, PANC-1; 72 h, MTS
Excerpt: as §1, §2, §3

U-251 = assay: as above; type: cell-based, human
Excerpt: as §1, §2, §3

NHDF = assay: Cytotoxicity studies (MTS), normal fibroblasts; type: cell-based; conditions: 72 h, normal human fibroblasts, read-out: Antiproliferative activity IC50 NHDF
Excerpt: as §1, §2, §3

T2 sequence (Q13882 whole entry): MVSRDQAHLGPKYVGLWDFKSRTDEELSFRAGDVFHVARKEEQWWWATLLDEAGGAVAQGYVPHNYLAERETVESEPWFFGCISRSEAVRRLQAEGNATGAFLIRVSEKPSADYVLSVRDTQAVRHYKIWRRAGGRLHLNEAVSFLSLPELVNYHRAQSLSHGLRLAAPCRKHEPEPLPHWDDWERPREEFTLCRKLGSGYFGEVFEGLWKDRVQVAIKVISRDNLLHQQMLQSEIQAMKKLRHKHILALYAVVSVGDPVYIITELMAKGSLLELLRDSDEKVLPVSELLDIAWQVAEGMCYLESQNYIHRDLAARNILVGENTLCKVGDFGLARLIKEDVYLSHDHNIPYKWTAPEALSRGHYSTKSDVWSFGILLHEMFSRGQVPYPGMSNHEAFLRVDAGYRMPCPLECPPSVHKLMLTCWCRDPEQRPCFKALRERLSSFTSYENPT
T4 sequence (P06241 whole entry): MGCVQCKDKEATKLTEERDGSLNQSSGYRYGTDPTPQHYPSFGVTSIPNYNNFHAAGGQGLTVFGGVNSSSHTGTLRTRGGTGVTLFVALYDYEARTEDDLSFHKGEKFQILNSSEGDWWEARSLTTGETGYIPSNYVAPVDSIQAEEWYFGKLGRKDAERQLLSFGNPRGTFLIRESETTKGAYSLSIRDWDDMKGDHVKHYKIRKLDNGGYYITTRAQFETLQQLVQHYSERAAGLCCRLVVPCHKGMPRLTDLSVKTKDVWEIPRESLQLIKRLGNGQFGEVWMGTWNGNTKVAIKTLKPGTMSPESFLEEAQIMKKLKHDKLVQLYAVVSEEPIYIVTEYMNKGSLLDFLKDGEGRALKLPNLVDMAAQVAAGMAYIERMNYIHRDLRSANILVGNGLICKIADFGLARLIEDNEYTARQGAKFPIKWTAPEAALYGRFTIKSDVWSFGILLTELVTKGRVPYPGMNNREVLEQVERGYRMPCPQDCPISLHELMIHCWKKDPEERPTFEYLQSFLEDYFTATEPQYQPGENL
T3 sequence (P41240 whole entry): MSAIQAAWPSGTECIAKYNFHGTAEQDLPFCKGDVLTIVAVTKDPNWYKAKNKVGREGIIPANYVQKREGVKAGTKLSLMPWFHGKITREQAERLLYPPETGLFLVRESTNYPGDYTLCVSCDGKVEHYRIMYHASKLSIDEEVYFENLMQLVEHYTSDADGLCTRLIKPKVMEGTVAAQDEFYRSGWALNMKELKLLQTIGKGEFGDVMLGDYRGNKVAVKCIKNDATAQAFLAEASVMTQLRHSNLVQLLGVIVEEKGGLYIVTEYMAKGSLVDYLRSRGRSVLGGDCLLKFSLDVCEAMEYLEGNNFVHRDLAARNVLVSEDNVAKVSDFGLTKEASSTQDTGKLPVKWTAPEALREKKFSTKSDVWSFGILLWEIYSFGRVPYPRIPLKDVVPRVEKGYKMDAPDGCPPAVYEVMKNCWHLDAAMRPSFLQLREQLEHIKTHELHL
T5 sequence (P07948 1-491 isoform P07948-2): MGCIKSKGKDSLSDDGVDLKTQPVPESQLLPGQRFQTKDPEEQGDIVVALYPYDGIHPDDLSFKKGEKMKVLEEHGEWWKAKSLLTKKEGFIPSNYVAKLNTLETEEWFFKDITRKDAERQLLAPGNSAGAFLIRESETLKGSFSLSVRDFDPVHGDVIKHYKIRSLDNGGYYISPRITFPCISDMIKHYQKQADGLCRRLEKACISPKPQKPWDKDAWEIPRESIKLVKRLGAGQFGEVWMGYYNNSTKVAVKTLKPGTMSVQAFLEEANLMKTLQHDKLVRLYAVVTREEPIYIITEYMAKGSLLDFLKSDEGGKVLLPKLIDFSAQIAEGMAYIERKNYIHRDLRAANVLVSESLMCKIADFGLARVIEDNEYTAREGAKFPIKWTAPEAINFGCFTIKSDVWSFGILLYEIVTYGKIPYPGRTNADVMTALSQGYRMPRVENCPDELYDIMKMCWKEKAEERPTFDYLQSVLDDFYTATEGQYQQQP
T1 sequence (Q06187 whole entry): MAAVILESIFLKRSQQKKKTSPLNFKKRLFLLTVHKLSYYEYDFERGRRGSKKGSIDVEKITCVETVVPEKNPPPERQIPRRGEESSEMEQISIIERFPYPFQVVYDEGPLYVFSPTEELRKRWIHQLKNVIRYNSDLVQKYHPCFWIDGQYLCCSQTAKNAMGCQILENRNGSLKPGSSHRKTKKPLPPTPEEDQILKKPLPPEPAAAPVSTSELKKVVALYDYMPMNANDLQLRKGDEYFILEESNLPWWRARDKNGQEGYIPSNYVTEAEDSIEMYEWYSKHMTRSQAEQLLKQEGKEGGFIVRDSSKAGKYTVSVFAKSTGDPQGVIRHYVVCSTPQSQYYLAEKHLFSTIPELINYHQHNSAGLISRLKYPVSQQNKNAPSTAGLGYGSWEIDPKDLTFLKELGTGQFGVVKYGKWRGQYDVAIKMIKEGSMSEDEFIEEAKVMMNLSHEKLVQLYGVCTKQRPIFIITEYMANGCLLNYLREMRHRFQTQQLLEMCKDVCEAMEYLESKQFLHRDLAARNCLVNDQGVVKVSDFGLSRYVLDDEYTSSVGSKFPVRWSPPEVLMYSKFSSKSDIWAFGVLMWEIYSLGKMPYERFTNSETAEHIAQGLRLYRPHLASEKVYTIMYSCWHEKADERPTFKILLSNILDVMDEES
T8 sequence (P12931 whole entry): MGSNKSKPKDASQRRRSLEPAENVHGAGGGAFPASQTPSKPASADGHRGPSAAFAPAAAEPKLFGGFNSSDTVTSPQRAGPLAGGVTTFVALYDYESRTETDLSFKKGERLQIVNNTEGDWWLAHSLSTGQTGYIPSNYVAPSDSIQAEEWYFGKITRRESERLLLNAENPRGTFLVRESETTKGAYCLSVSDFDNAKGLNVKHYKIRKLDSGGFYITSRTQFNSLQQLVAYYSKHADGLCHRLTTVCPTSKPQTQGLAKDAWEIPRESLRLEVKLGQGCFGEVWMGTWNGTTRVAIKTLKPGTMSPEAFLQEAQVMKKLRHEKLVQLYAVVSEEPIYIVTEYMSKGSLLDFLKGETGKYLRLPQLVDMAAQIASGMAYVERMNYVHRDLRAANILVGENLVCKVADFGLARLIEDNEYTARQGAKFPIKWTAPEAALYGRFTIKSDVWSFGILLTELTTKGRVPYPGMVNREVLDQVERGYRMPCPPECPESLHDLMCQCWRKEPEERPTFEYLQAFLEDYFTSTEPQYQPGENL
T7 sequence (P06239 whole entry): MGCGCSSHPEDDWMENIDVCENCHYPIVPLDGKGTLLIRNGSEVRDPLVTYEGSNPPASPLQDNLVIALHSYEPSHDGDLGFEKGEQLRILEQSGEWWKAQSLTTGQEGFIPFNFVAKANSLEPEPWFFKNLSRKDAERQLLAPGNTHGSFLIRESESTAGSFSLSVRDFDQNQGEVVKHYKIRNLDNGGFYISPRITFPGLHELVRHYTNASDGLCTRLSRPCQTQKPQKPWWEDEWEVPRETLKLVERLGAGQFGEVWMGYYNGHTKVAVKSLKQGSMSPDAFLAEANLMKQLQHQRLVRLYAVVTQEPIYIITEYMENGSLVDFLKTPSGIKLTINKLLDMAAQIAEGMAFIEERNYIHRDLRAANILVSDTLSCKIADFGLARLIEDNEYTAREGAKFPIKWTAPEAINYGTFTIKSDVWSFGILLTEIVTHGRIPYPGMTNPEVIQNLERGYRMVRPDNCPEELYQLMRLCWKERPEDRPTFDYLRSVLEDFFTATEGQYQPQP
T6 sequence (P00519 whole entry): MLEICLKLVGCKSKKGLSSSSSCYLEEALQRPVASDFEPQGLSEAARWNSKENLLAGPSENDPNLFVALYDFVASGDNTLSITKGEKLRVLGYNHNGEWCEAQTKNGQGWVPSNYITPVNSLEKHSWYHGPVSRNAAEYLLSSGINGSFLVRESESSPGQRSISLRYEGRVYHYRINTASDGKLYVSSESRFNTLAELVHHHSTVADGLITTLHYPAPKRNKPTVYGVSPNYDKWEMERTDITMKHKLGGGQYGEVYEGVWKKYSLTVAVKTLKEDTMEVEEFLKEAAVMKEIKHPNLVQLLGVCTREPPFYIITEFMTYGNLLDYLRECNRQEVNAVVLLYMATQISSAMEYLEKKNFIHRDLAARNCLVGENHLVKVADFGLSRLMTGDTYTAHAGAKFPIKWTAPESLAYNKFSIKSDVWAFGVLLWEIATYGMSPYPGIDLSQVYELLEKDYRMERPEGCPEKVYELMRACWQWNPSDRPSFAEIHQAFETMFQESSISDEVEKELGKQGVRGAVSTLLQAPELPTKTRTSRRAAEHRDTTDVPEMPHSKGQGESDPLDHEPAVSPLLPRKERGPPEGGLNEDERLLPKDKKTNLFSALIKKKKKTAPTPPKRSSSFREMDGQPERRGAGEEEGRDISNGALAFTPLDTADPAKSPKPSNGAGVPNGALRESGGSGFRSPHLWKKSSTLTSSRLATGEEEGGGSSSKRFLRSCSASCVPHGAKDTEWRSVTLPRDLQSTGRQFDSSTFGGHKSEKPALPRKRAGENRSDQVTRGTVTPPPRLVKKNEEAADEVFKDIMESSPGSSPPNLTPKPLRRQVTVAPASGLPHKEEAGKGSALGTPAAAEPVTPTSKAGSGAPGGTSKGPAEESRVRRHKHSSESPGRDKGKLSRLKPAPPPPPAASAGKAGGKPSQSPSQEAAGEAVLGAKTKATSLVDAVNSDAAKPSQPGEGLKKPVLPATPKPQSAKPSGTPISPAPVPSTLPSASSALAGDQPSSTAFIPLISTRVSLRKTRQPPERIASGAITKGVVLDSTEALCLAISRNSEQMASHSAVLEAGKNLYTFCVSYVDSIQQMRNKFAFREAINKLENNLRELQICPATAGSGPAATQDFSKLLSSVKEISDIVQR

SMILES: Cc1ccc(NC(=O)c2ccc(CN3CCN(C)CC3)cc2)cc1Nc1nccc(-c2cccnc2)n1 [Imatinib, imatinib, reference compound]
- inhibition at 0.5 µM (BTK): 0%
- inhibition at 0.5 µM (BRK): 0%
- inhibition at 0.5 µM (CSK): 0%
- inhibition at 0.5 µM (Fyn A): 0%
- inhibition at 0.5 µM (Lyn B): 0%
- Cell cycle arrest (phase) (K562 cells [1]): inhibition of G0/G1 phase
- CCNE2 expression (mRNA) (K562 cells [2]): increase
- Expression of the ABL gene (mRNA) (K562 cells [2]): slight non-significant decrease
- SRC mRNA levels (K562 cells [2]): significant decrease
- AIF protein (K562 cells [3]): significant increase
- Src protein expression / phosphorylation (K562 cells [3]): significant accumulation
- STAT5 phosphorylation (K562 cells [3]; at the concentrations used): stronger effect

SMILES: COc1ccc(/C=C/c2nc(Sc3ccccc3Cl)c3ccccc3n2)c(OC)c1 [IS16, 2-[(E)-2–(2,4-dimethoxyphenyl)ethenyl]-4–(2-chlorophenylthio)quinazoline]
- inhibition at 0.5 µM (ABL): 35.6 ± 1.5%
- inhibition at 0.5 µM (BTK): 13.1 ± 2.69%
- inhibition at 0.5 µM (BRK): 0%
- inhibition at 0.5 µM (CSK): 15.5 ± 2.88%
- inhibition at 0.5 µM (Fyn A): 50.1 ± 3.49%
- inhibition at 0.5 µM (Lck): 48.1 ± 6.55%
- inhibition at 0.5 µM (Lyn B): 0%
- inhibition at 0.5 µM (Src): 0%
- IC50 (A549; Homo sapiens, A549, 72 h, MTS): 13.4 ± 0.6 µM
- Selectivity index A549 (A549; versus NHDF): 1.86
- IC50 (HCT 116 p53+/+; Homo sapiens, HCT-116, 72 h, MTS): > 15 µM
- Selectivity index HCT 116 p53+/+ (HCT 116 p53+/+; versus NHDF): 1.67
- IC50 (HCT 116 p53−/−): > 10 µM
- IC50 (K562; Homo sapiens, K562, 72 h, MTS): 7.83 ± 0.753 µM
- Selectivity index K562 (K562; versus NHDF): 3.20
- IC50 (MCF-7; Homo sapiens, MCF7, 72 h, MTS): > 25 µM
- Selectivity index MCF-7 (MCF-7; versus NHDF): 1.00
- IC50 (PANC-1): > 2.5 µM
- IC50 (U-251; Homo sapiens, U-251, 72 h, MTS): 20.9 ± 1.63 µM
- Selectivity index U-251 (U-251; versus NHDF): 1.20
- IC50 (NHDF): 14.6 ± 1.27 µM

SMILES: CNC(=O)c1ccccc1Sc1ccc2c(/C=C/c3ccccn3)n[nH]c2c1 [Axitinib, axitinib, reference compound]
- inhibition at 0.5 µM (BRK): 0%
- inhibition at 0.5 µM (CSK): 11.4 ± 3.89%
- inhibition at 0.5 µM (Fyn A): 43.8 ± 2.96%
- inhibition at 0.5 µM (Lyn B): 39 ± 9.95%
- inhibition at 0.5 µM (Src): 10.8 ± 1.95%
- Fraction of cells in the G2/M phase (K562 cells [1]; concentration not given, control 28.68%): 47.28%
